Assay results as given in US6521628B1, “Fungicidal mixtures” (BASF Aktiengesellschaft, priority 1999, dated 2003).
Where two headings read alike, the source gives them in different places.

Tests used:
Format in all cases: in vivo
[1] = test system: Blumeria graminis f. sp. tritici; assay: Greenhouse test, 2 day curative, Blumeria graminis f. sp. tritici on wheat (Example 17); conditions: Table XVII, single compound
Protocol: (§1) The trials are carried out under greenhouse (Examples 1 to 18) or field conditions (Example 19) in residual or curative applications. The fungicides are applied in single treatments, or in a combination comprising a benzophenone of formula I and a compound selected from the classes (A) through (E) as defined above. The compounds are applied in form of an aqueous spray mix obtained from concentrated formulation or the technical material.
(§2) 1. Seed is planted in 6 cm diameter plastic pots and maintained in the greenhouse.
(§3) 2. When the primary leaf is fully expanded in the case of cereals or several leaves are present in the case of dicots, formulated test compounds are sprayed with a three nozzle overhead fungicide sprayer to near run-off. Alternatively, a single nozzle overhead track sprayer is used for application of the compounds to cereals at a rate of 200 l/ha. Plants are then allowed to air-dry.
(§4) 3. Inoculation precedes treatment in the case of curative evaluations and follows treatment in case of residual evaluations.
(§5) For inoculation of powdery mildew disease, plants are set up on greenhouse benches with bottom watering mats and inoculated by dusting them with conidia from infected plants. Between inoculation and treatment for curative evaluations and between treatment and inoculation for residual evaluations, plants are maintained in the greenhouse with bottom watering.
(§6) 4. Disease on the foliage as percent leaf area with disease symptoms/signs is evaluated about 7 days after inoculation. In the case of wheat, the tips and bases of the leaves are excluded from the evaluation. [formula]
(§7) 1. Technical compounds are formulated in a solvent/surfactant system consisting of 5% acetone and 0.05% Tween 20 in deionized water. Compounds are dissolved in acetone prior to addition of the water; the Tween 20 can be added through either the acetone or the water. Dilutions are made using the solvent/surfactant system. Formulated compounds are prepared using deionized water.
(§8) Assessments of the diseases took place at the indicated day after the application of the compounds. Per cent infected leaf area infected was evaluated. The efficacy of the compounds/compounds mixtures to control the diseases was calculated by using the formula given above under item 4: […]
(§9) Synergy was calculated using the % disease control values of specific treatments for the two COLBY formula given hereinabove
Fungicidal Efficacy of the Mixture of Different Benzophenones+Metconazole (2 Day Curative) Against Blumeria graminis f. sp. tritici on Wheat

Leptosphaeria nodorum = assay: Greenhouse test, 4 day residual, Leptosphaeria nodorum on wheat (Examples 8, 10); conditions: Parastagonospora nodorum, 96 h, single compound, read-out: Observed Efficacy; for pest or weed control at 4 ppm: dose rate 4 ppm; for pest or weed control at 16 ppm: dose rate 16 ppm; for pest or weed control at 64 ppm: dose rate 64 ppm; for pest or weed control at 256 ppm: dose rate 256 ppm
Text: as §1, with “The” for “The trials are carried out under greenhouse (Examples 1 to 18) or field conditions (Example 19) in residual or curative applications. The”
as §2, §3, §4
(§10) For inoculation of non-powdery mildew diseases, an aqueous spore suspension of the pathogen is applied to the plant and the plants are kept 1-2 days in a moist infection chamber before being returned to the greenhouse where they are maintained by bottom watering.
as §6, §7, §8, §9

Uncinula necator = assay: Greenhouse test, 1 day residual, Uncinula necator on vines (Example 18); conditions: Table XVIII, single compound
Protocol: as §1, §2, §3, §4, §5, §6, §7, §8, §9
Fungicidal Efficacy of the Mixture of BP-4+AP-4 (1 Day Residual) Against Uncinula necator on Vines

Pyrenophora teres = assay: Greenhouse test, 4 day residual, Pyrenophora teres on barley (Examples 13, 16); conditions: 96 h, single product, read-out: Observed Efficacy; for pest or weed control at 0.4 ppm: dose rate 0.4 ppm; for pest or weed control at 2 ppm: dose rate 2 ppm; for pest or weed control at 10 ppm: dose rate 10 ppm; for pest or weed control at 50 ppm: dose rate 50 ppm
Protocol: as §1, §2, §3, §4, §10, §6, §7, §8, §9
Fungicidal Efficacy of the Mixture of BP4+Other Fungicides (4 Day Residual) Against Pyrenophora teres on barley
Fungicidal Efficacy of the Mixture of BP4+Other Fungicides (4 Day Residual) Against Pyrenophora teres on Barley

Erysiphe cichoracearum = assay: Greenhouse test, 4 day residual, Erysiphe cichoracearum on cucumbers (Examples 6, 11, 14); conditions: Golovinomyces cichoracearum, 96 h, read-out: Observed Efficacy; for pest or weed control at 0.4 ppm: dose rate 0.4 ppm; for pest or weed control at 2 ppm: dose rate 2 ppm; for pest or weed control at 10 ppm: dose rate 10 ppm; for pest or weed control at 50 ppm: dose rate 50 ppm
Protocol: as §1, §2, §3, §4, §5, §6, §7, §8, §9
Fungicidal Efficacy of the Mixture of BP-4+Other Fungicides (4 Day Residual) Against Erysiphe cichoracearum on Cucumbers
Fungicidal Efficacy of the Mixture of BP4+Other Fungicides (4 Day Residual) Against Erysiphe cichoracearum on Cucumbers

Puccinia recondita = assay: Greenhouse test, 4 day residual, Puccinia recondita on wheat (Examples 7, 9, 12, 15); conditions: 96 h, read-out: Observed Efficacy; for pest or weed control at 0.4 ppm: dose rate 0.4 ppm; for pest or weed control at 2 ppm: dose rate 2 ppm; for pest or weed control at 10 ppm: dose rate 10 ppm; for pest or weed control at 50 ppm: dose rate 50 ppm; for pest or weed control at 4 ppm: dose rate 4 ppm; for pest or weed control at 16 ppm: dose rate 16 ppm
Protocol: as §1, §2, §3, §4, §10, §6, §7, §8, §9
Fungicidal Efficacy of the Mixture of BP-4+Other Fungicides (4 Day Residual) Against Puccinia recondita on Wheat
Fungicidal Efficacy of the Mixture of BP4+Other Fungicides (4 Day Residual) Against Puccinia recondita on Wheat
Fungicidal Efficacy of the Mixture of BP-4+Myclobutanil (4 Day Residual) Against Puccinia recondita on Wheat

[2] = Example 14, Table XIV, single product, cucumbers
[3] = Table XI, single compound or product
[4] = Example 15, Table XV, single product, wheat

## COc1cc(C)c(C(=O)c2c(C)ccc(Br)c2OC)c(OC)c1OC [BP-4, 3-bromo-2′,6-dimethyl-2,4′,5′,6′-tetramethoxybenzophenone]
[1]; dose rate 0.67 ppm
  Observed Efficacy: 9%
[1]; dose rate 2 ppm
  Observed Efficacy: 27%
[1]; dose rate 6 ppm
  Observed Efficacy: 42%
[1]; dose rate 18 ppm
  Observed Efficacy: 78%
[1]; dose rate 54 ppm
  Observed Efficacy: 92%
Leptosphaeria nodorum; Table VIII
  pest or weed control at 4 ppm: 0%
  pest or weed control at 16 ppm: 0%
  pest or weed control at 64 ppm: 14%
  pest or weed control at 256 ppm: 34%
Leptosphaeria nodorum; Table X
  pest or weed control at 4 ppm: 0%
  pest or weed control at 16 ppm: 10%
  pest or weed control at 64 ppm: 18%
  pest or weed control at 256 ppm: 44%
Uncinula necator; dose rate 0.25 ppm
  Observed Efficacy: 0%
Uncinula necator; dose rate 0.5 ppm
  Observed Efficacy: 21%
Uncinula necator; dose rate 1 ppm
  Observed Efficacy: 28%
Uncinula necator; dose rate 2 ppm
  Observed Efficacy: 9%
Uncinula necator; dose rate 4 ppm
  Observed Efficacy: 43%
Uncinula necator; dose rate 8 ppm
  Observed Efficacy: 42%
Pyrenophora teres; Example 13, Table XIII
  pest or weed control at 0.4 ppm: 0%
  pest or weed control at 2 ppm: 0%
  pest or weed control at 10 ppm: 34%
  pest or weed control at 50 ppm: 58%
Pyrenophora teres; Example 16, Table XVI
  pest or weed control at 0.4 ppm: 0%
  pest or weed control at 2 ppm: 0%
  pest or weed control at 10 ppm: 0%
  pest or weed control at 50 ppm: 11%
Erysiphe cichoracearum; [2]
  pest or weed control at 0.4 ppm: 0%
  pest or weed control at 2 ppm: 0%
  pest or weed control at 10 ppm: 13%
  pest or weed control at 50 ppm: 97%
Erysiphe cichoracearum; Table VI, single compound, dose rate 1 ppm
  pest or weed control at 1 ppm: 1%
Erysiphe cichoracearum; Table VI, single compound, dose rate 4 ppm
  pest or weed control at 4 ppm: 6%
Erysiphe cichoracearum; Table VI, single compound, dose rate 16 ppm
  pest or weed control at 16 ppm: 51%
Erysiphe cichoracearum; Table VI, single compound, dose rate 64 ppm
  pest or weed control at 64 ppm: 100%
Erysiphe cichoracearum; [3]
  pest or weed control at 0.4 ppm: 0%
  pest or weed control at 2 ppm: 2%
  pest or weed control at 10 ppm: 55%
  pest or weed control at 50 ppm: 96%
Puccinia recondita; [4]
  pest or weed control at 0.4 ppm: 0%
  pest or weed control at 2 ppm: 0%
  pest or weed control at 10 ppm: 6%
  pest or weed control at 50 ppm: 12%
Puccinia recondita; Table IX, single compound
  pest or weed control at 4 ppm: 6%
  pest or weed control at 16 ppm: 4%
Puccinia recondita; Table IX, single compound, dose rate 64 ppm
  pest or weed control at 64 ppm: 16%
Puccinia recondita; Table IX, single compound, dose rate 256 ppm
  pest or weed control at 256 ppm: 38%
Puccinia recondita; Table VII, single compound
  pest or weed control at 4 ppm: 0%
  pest or weed control at 16 ppm: 0%
Puccinia recondita; Table XII, single compound
  pest or weed control at 0.4 ppm: 2%
  pest or weed control at 2 ppm: 7%
  pest or weed control at 10 ppm: 10%
  pest or weed control at 50 ppm: 31%

## CC(C1CC1)C(O)(Cn1cncn1)c1ccc(Cl)cc1 (stereo not drawn) [Cyproconazole]
Puccinia recondita; [4]
  pest or weed control at 0.4 ppm: 58%
